Patent US8124637B2, “Anthra [1, 2-d]imidazole-6,11-dione derivatives, preparation method and application thereof” (National Defense Medical Center, priority 2010, dated 2012)

What was measured:
[1] = test system: hTERT promoter (PhTERT) expression; assay: SEAP assay (PhTERT-SEAP reporter, H1299); assay type: cell-based, human; conditions: Homo sapiens, NCI-H1299, PhTERT-SEAP (H1299); for activity at 1 µM: read-out: Relative SEAP activity (%); for activity at 10 µM / activity at 100 µM: read-out: Relative SEAP activity (%) (converted)
Experimental: H1299 were grown in RPMI 1640 media supplemented with 10% fetal bovine serum, 100 units/mL penicillin and […] streptomycin in a humidified atmosphere with 5% CO2 at 37° C. Culture media were changed every three days. To establish stable cell lines that the expression of hTERT could be monitored by a reporter system, a about 3.3 kbp DNA fragment ranging from −3338 to +1 bp of the hTERT gene (hTERT promoter, PhTERT) was subcloned upstream to a secreted alkaline phosphatase gene (SEAP) and transfected into H1299 bp electroporation. The stable clones were selected using G418. The stable clones derived from H1299 were cultured using conditions that are similar to their parental cells.
Secreted alkaline phosphatase was used as the reporter system to monitor the transcriptional activity of hTERT. Here, about 10^4 cells each were grown in 96-well plates and incubated at 37° C. for 24 hours and changed with fresh media. Varying amounts of drugs were added and cells were incubated for another 24 hours. Culture media were collected and heated at 65° C. for 10 min to inactivate heat-labile phosphatases. An equal amount of SEAP buffer (2 M diethanolamine, 1 mM MgCl2, and 20 mM L-homoarginine) was added to the media and p-nitrophenyl phosphate was added to a final concentration of 12 mM. Absorptions at 405 nm were taken, and the rate of absorption increase is determined (the increasing rate of absorbance at 405 nm was used to represent the activity of SEAP).

[2] = MTT assay (relative cell survival), H1299; conditions: human, H1299 non-small cell lung cancer cells (PhTERT-SEAP), Relative MTT viability (%)
Experimental: Further, cells were subjected to MTT assay to compare the relative toxicity or effect of each compound on cell proliferation and activity.
The above-described cells are cultured in a 96-well plate, to which was added with 25 μl MTT solution, and cultured in a 37° C. carbon dioxide incubator for 4 hours. Then, 100 μl Lysis buffer is added and incubated in a 37° C. carbon dioxide incubator overnight. An ELISA reader (Bio-Rad Model 450) is used to read optical density (O.D.) at 550 nm.
After being subjected to different compound treatments for 72 hours, cells were treated with a fixed amount of MTT solution for 28 hours. Then, DMSO was used to dissolve back formazan, an O. D. value was detected at wavelength in the range of 550/670 nm, and calculated accordingly the cell survival rate (as shown in Table 1).

| SMILES | activity at 1 µM [1] | activity at 10 µM [1] | activity at 100 µM [1] | viability at 72 h, 1 µM [2] | viability at 72 h, 10 µM [2] | viability at 72 h, 100 µM [2] |
| --- | --- | --- | --- | --- | --- | --- |
| CN(C)Cc1nc2ccc3c(c2[nH]1)C(=O)c1ccccc1C3=O [CL02, 2-((dimethylamino)methyl)-1H-anthra[1,2-d]imidazole-6,11-dione] | 83.6 ± 8.52% | < 50% | -2.26% | 98.9 ± 6.37% | > 50% | – |
| CCN(C)Cc1nc2ccc3c(c2[nH]1)C(=O)c1ccccc1C3=O [CL03, 2-((ethylmethylamino)methyl)-1H-anthra[1,2-d]imidazole-6,11-dione] | 97.1 ± 12% | < 50% | -2.69% | 98.9 ± 3.64% | > 50% | – |
| CCCN(C)Cc1nc2ccc3c(c2[nH]1)C(=O)c1ccccc1C3=O [CL05, 2-((methylpropylamino)methyl)-1H-anthra[1,2-d]imidazole-6,11-dione] | 96 ± 6.58% | < 50% | -0.38% | 93.5 ± 7.25% | – | – |
| CN(Cc1nc2ccc3c(c2[nH]1)C(=O)c1ccccc1C3=O)CC1OCCO1 [CL08, 2-(((1,3-dioxolan-2-yl)-N-methylmethanamino)methyl)-1H-anthra[1,2-d]imidazole-6,11-dione] | 90.4 ± 2.87% | 68.7% | 6.78% | 104 ± 3.91% | 89.8% | 28.3% |
| COc1cccc(CN(C)Cc2nc3ccc4c(c3[nH]2)C(=O)c2ccccc2C4=O)c1 [CL09, 2-((3-methoxy-N-methybenzylamino)methyl)-1H-anthra[1,2-d]imidazole-6,11-dione] | 105 ± 3.38% | 78.1% | -3.01% | 96.6 ± 5.02% | 97.6% | 9.24% |
| O=C1c2ccccc2C(=O)c2c1ccc1nc(CN(Cc3ccccn3)Cc3ccccn3)[nH]c21 [CL10, 2-((di-(2-picolyl)amino)methyl)-1H-anthra[1,2-d]imidazole-6,11-dione] | 86.5 ± 3.63% | -6.44% | -7.58% | 101 ± 5.98% | – | – |
| O=C1c2ccccc2C(=O)c2c1ccc1nc(CNCc3ccccc3C(F)(F)F)[nH]c21 [CL12, 2-((2-(trifluoromethyl)benzylamino)methyl)-1H-anthra[1,2-d]imidazole-6,11-dione] | 87.3 ± 3.26% | 81.2% | -1.71% | 98.5 ± 5.49% | 96.3% | 6.32% |
| O=C1c2ccccc2C(=O)c2c1ccc1nc(CNCc3ccc(C(F)(F)F)cc3)[nH]c21 [CL14, 2-((4-(trifluoromethyl)benzylamino)methyl)-1H-anthra[1,2-d]imidazole-6,11-dione] | 51.6 ± 0.68% | 78.5% | 2.56% | 74.3 ± 4.04% | 10.6% | – |
| O=C1c2ccccc2C(=O)c2c1ccc1nc(CNCc3ccc4c(c3)OCO4)[nH]c21 [CL15, 2-((piperonylamino)methyl)-1H-anthra[1,2-d]imidazole-6,11-dione] | 74.5 ± 14.3% | 74.6 ± 17.4% | 1.32% | 109 ± 2.02% | 103% | 14.2% |
| O=C1c2ccccc2C(=O)c2c1ccc1nc(CN3CCCCCC3)[nH]c21 [CL18, 2-((azepan-1-yl)methyl)-1H-anthra[1,2-d]imidazole-6,11-dione] | 107 ± 5.16% | 66.5% | 3.79% | 104 ± 6.82% | 85.1% | – |
| O=C1c2ccccc2C(=O)c2c1ccc1nc(CN3CCC4(CC3)OCCO4)[nH]c21 [CL19, 2-((1,4-dioxa-8-azaspiro[4.5]decane-8-yl)methyl)-1H-anthra[1,2-d]imidazole-6,11-dione] | 97 ± 1.84% | 95.5% | 14.1% | 103 ± 2.09% | 79.2% | 14.8% |
| O=C1c2ccccc2C(=O)c2c1ccc1nc(CN3CCOCC3)[nH]c21 [CL21, 2-(morpholinomethyl)-1H-anthra[1,2-d]imidazole-6,11-dione] | 102 ± 4.81% | 97.3% | 25.6% | 89.8 ± 2.58% | 70.8% | 13.4% |
| O=C1c2ccccc2C(=O)c2c1ccc1nc(CN3CCSCC3)[nH]c21 [CL22, 2-(thiomorpholinomethyl)-1H-anthra[1,2-d]imidazole-6,11-dione] | 115 ± 2.45% | 76.7% | 4.62% | 91.8 ± 3.61% | 77.5% | 0.93% |
| O=C1c2ccccc2C(=O)c2c1ccc1nc(CN3CCSC3)[nH]c21 [CL23, 2-((thiazolidin-3-yl)methyl)-1H-anthra[1,2-d]imidazole-6,11-dione] | 106 ± 3.01% | 85.6% | 11.9% | 89.3 ± 4.79% | 75.5% | 5.18% |
| C=CCN1CCN(Cc2nc3ccc4c(c3[nH]2)C(=O)c2ccccc2C4=O)CC1 [CL26, 2-((4-allylpiperazin-1-yl)methyl)-1H-anthra[1,2-d]imidazole-6,11-dione] | 87.2 ± 1.82% | 16.7% | -6.77% | 86 ± 3.37% | 44.8% | – |
| O=C1c2ccccc2C(=O)c2c1ccc1nc(CN3CCN(c4ncccn4)CC3)[nH]c21 [CL29, 2-((4-(pyrimidin-2-yl)piperazin-1-yl)methyl)-1H-anthra[1,2-d]imidazole-6,11-dione] | 111 ± 3.55% | 92.2% | 19.4% | 85.5 ± 3.17% | 73.7% | 28.2% |
| O=C1c2ccccc2C(=O)c2c1ccc1nc(CN3CCN(c4ccccc4F)CC3)[nH]c21 [CL30, 2-((4-(2-fluorophenyl)piperazin-1-yl)methyl)-1H-anthra[1,2-d]imidazole-6,11-dione] | 103 ± 3.44% | 78.2% | -0.29% | 88.4 ± 2.16% | 76.7% | 14.8% |
| N#Cc1ccccc1N1CCN(Cc2nc3ccc4c(c3[nH]2)C(=O)c2ccccc2C4=O)CC1 [CL31, 2-((4-(2-cyanophenyl)piperazin-1-yl)methyl)-1H-anthra[1,2-d]imidazole-6,11-dione] | 106 ± 4.67% | 56.7% | 5.59% | 78.3 ± 5.02% | 61.7% | 21.6% |
| O=C1c2ccccc2C(=O)c2c1ccc1nc(CN3CCN(Cc4ccccc4)CC3)[nH]c21 [CL33, 2-((4-benzylpiperazin-1-yl)methyl)-1H-anthra[1,2-d]imidazole-6,11-dione] | 97.8 ± 7.2% | – | -2.7% | 92.6 ± 1.56% | > 50% | 12.7% |
| O=C(CCCl)Nc1ccc2c(c1NC(=O)CCCl)C(=O)c1ccccc1C2=O [CL34, 1,2-bis(3-chloropropionamido)anthraquinone] | 87.4 ± 4.51% | 12.5 ± 4.35% | -2.74 ± 0.61% | 94.1 ± 3.21% | < 50% | 5.85 ± 2.1% |
| CN1CCN(CCc2nc3ccc4c(c3[nH]2)C(=O)c2ccccc2C4=O)CC1 [CL36, 2-(2-(4-methylpiperazin-1-yl)ethyl)-1H-anthra[1,2-d]imidazole-6,11-dione] | 73.9 ± 3.2% | 7.1% | -3.06% | 87.2 ± 6.98% | < 50% | – |
| O=C1c2ccccc2C(=O)c2c1ccc1nc(CCN3CCN(c4ncccn4)CC3)[nH]c21 [CL39, 2-(2-(4-(pyrimidin-2-yl)piperazin-1-yl)ethyl)-1H-anthra[1,2-d]imidazole-6,11-dione] | 83 ± 3.61% | < 50% | -8.09% | 90.7 ± 5.81% | – | – |
| O=C1c2ccccc2C(=O)c2c1ccc1nc(CCN3CCN(Cc4ccccc4)CC3)[nH]c21 [CL40, 2-(2-(4-benzylpiperazin-1-yl)ethyl)-1H-anthra[1,2-d]imidazole-6,11-dione] | 73 ± 8.24% | – | -7.29 ± 0.0949% | 95.6 ± 8.22% | > 50% | 6.65% |
